Assay results published in paper PMC12139422, “Structural basis for phosphatidylcholine synthesis by bacterial phospholipid N-methyltransferases” (The Journal of Biological Chemistry, 2025).

Tests used:
AtPmtAΔN25 [1] = target: T1, AtPmtAΔN25 (Agrobacterium fabrum, UniProt A9CKE9); test: X-ray crystal structure ([…] Å); format: binding; conditions: cocrystallised with SAM at 10:1 ligand-to-protein, pH 8.0, 20 °C; density assigned to MTA as SAM cleavage product; SAM site
T1 construct: gene Atu0300; lacks residues 1-25 (N-terminal amphipathic helix); N-terminal His6-tag cut with HRV 3C protease; expressed in E. coli C43(DE3); full length 197 residues; four molecules in the asymmetric unit
T1 sequence (A9CKE9 26-197): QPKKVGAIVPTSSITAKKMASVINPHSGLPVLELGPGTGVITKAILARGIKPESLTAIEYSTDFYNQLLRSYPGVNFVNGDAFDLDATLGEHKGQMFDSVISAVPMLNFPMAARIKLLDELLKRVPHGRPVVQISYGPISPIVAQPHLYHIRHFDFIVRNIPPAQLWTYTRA

AtPmtAΔN25 [2] = target: T1, AtPmtAΔN25; test: X-ray crystal structure ([…] Å) and 1H-15N HSQC NMR titration; format: binding; conditions: cocrystallised at 10:1 ligand-to-protein, pH 8.0, 20 °C; NMR titration 0-10 equivalents, pH 7.0, 10 °C; SAM site (Gly-rich loop)

| Structure (SMILES) | X-ray crystal structure (2.04 Å) (AtPmtAΔN25 [1]) | X-ray crystal structure (1.95 Å) and 1H-15N HSQC NMR titration (AtPmtAΔN25 [2]) |
| --- | --- | --- |
| CSC[C@H]1O[C@@H](n2cnc3c(N)ncnc32)[C@H](O)[C@@H]1O [5′-methylthioadenosine] | Therefore, we assigned the electron density to MTA |  |
| Nc1ncnc2c1ncn2[C@@H]1O[C@H](CSCC[C@H](N)C(=O)O)[C@@H](O)[C@H]1O [SAH] |  | All four AtPmtAΔN25 molecules in the asymmetric unit contained SAH molecules with clear electron densities |
